{"source": "patent US12667556B2", "about": "“Extended release injectable formulations comprising an isoxazoline active agent, methods and uses thereof” (BOEHRINGER INGELHEIM ANIMAL HEALTH USA INC., priority 2015, dated 2026)", "origin": "cited, not measured here", "test_system": "fleas"}
{"smiles": "O=C(CNC(=O)c1ccc(C2=NOC(c3cc(Cl)cc(C(F)(F)F)c3)(C(F)(F)F)C2)c2ccccc12)NCC(F)(F)F", "note": "(centres unmarked) [compound (IIc), 4-[5-[3-chloro-5-(trifluoromethyl)phenyl]-4,5-dihydro-5-(trifluoromethyl)-3-isoxazolyl]-N-[2-oxo-2-[(2,2,2-trifluoroethyl)amino]ethyl]-1-naphthalenecarboxamide]", "values": [{"measurement": "EC90 (plasma concentration) against fleas on dogs", "setting": "Letendre et al., Veterinary Parasitology 201 (2014) 190-197", "value": 0.023, "unit": "µg/mL"}, {"measurement": "plasma concentration known to effectively control fleas on dogs", "setting": "known, literature", "value": "about 20 ng/ml"}]}
